Reference: paper PMC8065212, “The active form of the influenza cap-snatching endonuclease inhibitor baloxavir marboxil is a tight binding inhibitor” (The Journal of Biological Chemistry, 2021)
Several values for one entry are separate records, joined by “and”; a condition that tells them apart may be missing. Equal values may be shown once. Entries after “also recorded” stand apart in the source; their conditions may differ.

How the values were obtained:
FluB-ht PA I38T [1] = biological target: T1, FluB-ht PA I38T (Influenza B virus, UniProt Q5V8Z9, I38T); format: biochemical, Influenza B (B/Memphis/13/03)
FluB-ht PA I38T [2] = biological target: T1, FluB-ht PA I38T; format: biochemical, Influenza B (B/Memphis/13/03); remark: listed apart in the source
FluB-ht PA I38T [3] = format: biochemical, Influenza B (B/Memphis/13/03)
FluB-ht PA I38T [4] = biological target: T1, FluB-ht PA I38T; format: biochemical, Influenza B (B/Memphis/13/03); remark: listed apart in the source
influenza B I38 mutants = details: cited from earlier work
influenza virus = details: cited from earlier work
influenza A I38 mutants = details: cited from earlier work

Structure (SMILES)	BXA concentration at which an effect of preincubation is observed (FluB-ht PA I38T [1])	effect of preincubation length on activity (FluB-ht PA I38T [1])	slope of plot of IC50 versus enzyme concentration (FluB-ht PA I38T [2])	decrease in inhibition (difference in IC50), PA I38T versus WT (FluB-ht PA I38T [3])	increase of Ki^app, PA I38T with respect to WT (FluB-ht PA I38T [3])	inhibition of endonuclease activity by order of addition (FluB-ht PA I38T [4])	increase in EC50 values with mutations at position I38 (influenza B I38 mutants)	increase in EC50 values of mutant viruses (influenza virus)	increase in EC50 values with mutations at position I38 (influenza A I38 mutants)
O=C1c2c(O)c(=O)ccn2N([C@@H]2c3ccccc3SCc3c2ccc(F)c3F)[C@@H]2COCCN12 [BXA, baloxavir acid]	600 nM	negligible effects; also recorded: time-independent	0.58 and ~0.5	approximately threefold decrease	~18 fold	no inhibition; also recorded: not observed regardless of the order of addition	–	–	–
COC(=O)OCOc1c2n(ccc1=O)N([C@@H]1c3ccccc3SCc3c1ccc(F)c3F)[C@@H]1COCCN1C2=O [BXM, Baloxavir marboxil]	–	–	–	–	–	–	up to tenfold	up to 50 fold	up to 50 fold
